US9708307B2, “Heterocyclic acetamide compound” (ASTELLAS PHARMA INC., priority 2013, dated 2017)

Assays:
dopamine D1 receptor = target: T1, dopamine D1 receptor (Homo sapiens, UniProt P21728); test: Evaluation of positive allosteric modulating activity: leftward shift of dopamine dose-response curve (cAMP) in CHO cells stably expressing human dopamine D1 receptor; type: cell-based; conditions: extrapolated by linear function from dopamine EC50 at each test drug concentration
T1 construct: expressed in transfected cells
Procedure: The composition of a buffer used in Test Example 1 is as follows.
Buffer for assay=αMEM containing 1 μM IBMX.
Buffer for dilution=αMEM containing 1 μM IBMX and 0.8 mM ascorbic acid.
The positive allosteric modulating activity of the compound of the present invention was evaluated according to the ratio of the leftward shift in a dopamine dose-response curve.
The leftward shift means that a dose-response curve of dopamine, in which the logarithm of a dose is on the horizontal axis (X-axis) and a response (cAMP concentration in this test) is on the vertical axis (Y-axis), shifts in parallel in the negative direction of the X-axis by the administration of a positive allosteric modulator.
The coding sequences of a dopamine D1 receptor in a human (Accession No.: NM_000794.3) were amplified by PCR and subcloned into a pEF-BOS vector. The resulting construct was transfected to CHO (-dhrf) cells (ATCC No.: CRL-9096) using Lipofectamine 2000 (Invitrogen Inc.). The clones stably transfected were obtained by selection using 100 nM MTX. The obtained cell clones were maintained in αMEM containing 10% FBS, 1 mg/mL penicillin, and 1 U/streptomycin.
Dose-Response Curve of Dopamine Using test drug was drawn on the basis of the following experiments.
A buffer for assay of a test drug was serially diluted (concentrations 0.48 μM to 40 μM, 3-fold dilutions). The serially diluted solutions of the test drug were dispensed in each portion of 2.5 μL to black 384-well plates (Becton Dickinson, Inc.).
CHO cells stably expressing a dopamine D receptor of a human were seeded in each portion of 5 μL in each well at a density of 5000 cells/well, centrifuged in a centrifuge for a plate (05PR-22, Hitachi Co., Ltd., 800 rpm), and then allowed to stand for 10 minutes.
Serially diluted solutions of dopamine were prepared from a DMSO solution of dopamine (Sigma Co.) with a buffer for dilutions (concentrations 0.018 μM to 13.2 μM, 3-fold dilutions), and the serially diluted solutions of dopamine were dispensed in portions of 2.5 μL to each well of a plate.
The plate was stirred using a plate shaker (Sanko Junyaku (mx-5)) and then allowed to stand at room temperature for 20 minutes (final concentration: test drug 0 μM to 10 μM, dopamine 0 μM to 3.3 μM, 3-fold dilutions).
cAMP was quantified using a cAMP femto 2 kit (Sceti Medical Labo K. K.) by the method described in the materials appended in the kit. A kit reagent cAMP-d2 solution and a kit reagent Anti cAMP-Cryptate solution were added in each portion of 5 μL to each well of the above-described plate, and the reaction was stopped. After incubating the plate at room temperature for 1 hour, the fluorescent intensity was measured (an excitation wavelength of 320 nm and a fluorescent wavelength of 665 nm) using a plate reader (2103 Multilabel Reader (registered trademark EnVision), PerkinElmer, Inc.).
As a control group, a well without addition of dopamine was taken as 0% and a well with a dopamine final concentration of 3.3 μM was taken as 100%.
The dose-response curve of dopamine was drawn on the basis of the experiment carried out in the same manner as in (1) without the addition of a test drug.
In order to quantitatively compare the activity of the test drug, the activity was evaluated by EC50 2-fold potentiation.
In the present specification, “EC50 2-fold potentiation” is the test drug concentrations that enhanced the EC50 two-fold in the dose-response curve (2) of dopamine.
From the dose-response curve (1) of dopamine in the presence of the test drug at each concentration, the EC50 at the test drug concentration was obtained. From the correlation between the concentration of the test drug and the EC50, EC50 2-fold potentiation was calculated by extrapolation by a linear function (straight line).
Further, the EC50 value was calculated from the dose-response curves (1) and (2) of dopamine, using non-linear regression analysis. […]

ddY male mice = test: Y-maze test: improvement effect on cognitive impairment caused by MK-801 (spontaneous alternation behavior); type: in vivo; conditions: oral, once, one hour before test, MK-801 0.15 mg/kg i.p. 20 minutes before
Procedure: The improvement effect of the compound of the present invention on cognitive impairment was evaluated using a Y-maze test which is an experiment system of alternation behavior.
As a Y-maze, a maze, in which three tracks having a length of one arm of 40 cm, a height of a wall of 13 cm, a width of a bottom of 3 cm, and a width of a top of 10 cm are each joined in the Y shape at a degree of 120, was used. […]
The above-described mice were allowed to explore freely for 8 minutes after being placed at an end of one track in the Y-maze, and the track and the sequence in which the mice entered were recorded. The number of times the mice entered within the measurement time was counted, and taken as a total entry number. Among these, a combination in which the mice successively entered different three tracks (for example, when taking three arms as a, b, and c, respectively, a case where the order of the arm that entered was “abccbacab” was counted as 4, inclusive of overlapping) was considered as a spontaneous alternation behavior number. The spontaneous alternation behavior rate was calculated by the following calculation and used as an index for a spontaneous alternation behavior: Spontaneous alternation behavior rate=spontaneous alternation behavior number/(total number of entries−2)×100 […]
The measured values were expressed in average values±standard errors for each group. […]

T1 sequence (P21728 whole entry): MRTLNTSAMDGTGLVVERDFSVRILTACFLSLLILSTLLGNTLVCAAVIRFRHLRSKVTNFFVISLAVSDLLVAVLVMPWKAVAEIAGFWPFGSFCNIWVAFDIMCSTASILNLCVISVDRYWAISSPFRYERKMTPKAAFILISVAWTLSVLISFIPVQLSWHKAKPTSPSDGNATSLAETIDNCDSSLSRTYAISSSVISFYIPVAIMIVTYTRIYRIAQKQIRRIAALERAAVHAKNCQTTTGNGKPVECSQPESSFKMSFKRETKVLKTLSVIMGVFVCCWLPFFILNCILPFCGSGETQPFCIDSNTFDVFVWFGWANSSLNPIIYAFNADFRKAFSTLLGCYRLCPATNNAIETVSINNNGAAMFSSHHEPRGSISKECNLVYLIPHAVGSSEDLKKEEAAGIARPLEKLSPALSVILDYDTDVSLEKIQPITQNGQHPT

Row | Data 1: EC50 2-fold potentiation (test drug concentration that enhanced the dopamine EC50 two-fold) (dopamine D1 receptor) [nM] | Structure (SMILES) | Data 2: effective concentration (improved the spontaneous alternation behavior) (ddY male mice) [mg/kg]
1 | 440 | CN(Cc1nc2cc(Br)ccc2[nH]1)C(=O)Cn1c(=O)oc2ccc(Cl)cc21 [Example 20] | 1.0
2 | 450 | CN(Cc1nc2cc(Cl)ccc2[nH]1)C(=O)Cn1c(=O)oc2ccc(C(F)(F)F)cc21 [Example 25] | –
3 | 1000 | CN(Cc1nc2cc(Cl)ccc2[nH]1)C(=O)Cn1c(=O)oc2ccc(Cl)cc21.Cl [Example 12] | –
4 | 1700 | CN(Cc1nc2cc(Cl)c(F)cc2[nH]1)C(=O)Cn1c(=O)oc2ccc(Cl)cc21.Cl [Example 14] | –
5 | 460 | CN(Cc1nc2cc(C(F)(F)F)ccc2[nH]1)C(=O)Cn1c(=O)oc2ccc(Cl)cc21.Cl [Example 1, 2-(5-chloro-2-oxo-1,3-benzoxazol-3 (2H)-yl)-N-methyl-N-{[5-(trifluoromethyl)-1H-benzimidazol-2-yl]methyl}acetamide hydrochloride] | 0.1

Second part, the molecule before the results:

Row | Structure (SMILES) | Data 1: EC50 2-fold potentiation (test drug concentration that enhanced the dopamine EC50 two-fold) (dopamine D1 receptor) [nM] | Data 2: effective concentration (improved the spontaneous alternation behavior) (ddY male mice) [mg/kg]
6 | CN(Cc1nc2c(Cl)cccc2[nH]1)C(=O)Cn1c(=O)oc2ccc(Cl)cc21 [Example 34] | 990 | –
7 | CN(Cc1nc2cc(C3CC3)ccc2[nH]1)C(=O)Cn1c(=O)oc2ccc(C(F)(F)F)cc21 [Example 22] | 390 | –
8 | COc1cc2[nH]c(CN(C)C(=O)Cn3c(=O)oc4ccc(Cl)cc43)nc2cc1Br.Cl [Example 15] | 740 | –
9 | CN(Cc1nc2cc(Cl)ccc2[nH]1)C(=O)Cn1c(=O)oc2ccc(OC(F)(F)F)cc21 [Example 26] | 370 | –
10 | CN(Cc1nc2cc(C(F)(F)F)ccc2[nH]1)C(=O)Cn1c(=O)oc2ccc(Cl)c(F)c21 [Example 17] | 470 | –
11 | CN(Cc1nc2c(C(F)(F)F)cccc2[nH]1)C(=O)Cn1c(=O)oc2ccc(C(F)(F)F)cc21 [Example 39] | 400 | –
12 | CN(Cc1nc2cc(Cl)c(Cl)cc2n1CC(C)(C)O)C(=O)Cn1c(=O)oc2ccc(Cl)cc21 [Example 37] | 300 | –
13 | CN(Cc1nc2cc(OC(F)(F)F)ccc2[nH]1)C(=O)Cn1c(=O)oc2ccc(Cl)cc21 [Example 31] | 1100 | –
14 | CN(Cc1nc2cc(C(F)(F)F)ccc2[nH]1)C(=O)Cn1c(=O)oc2ccc(C(F)(F)F)c(F)c21 [Example 27] | 460 | –
15 | Cc1cc2nc(CN(C)C(=O)Cn3c(=O)oc4ccc(Cl)cc43)[nH]c2cc1Cl [Example 30] | 270 | –
16 | CN(Cc1nc2cc(Cl)c(Cl)cc2n1CCO)C(=O)Cn1c(=O)oc2ccc(Cl)cc21.Cl [Example 7, 2-(5-chloro-2-oxo-1,3-benzoxazol-3 (2H)-yl)-N-{[5,6-dichloro-1-(2-hydroxyethyl)-1H-benzimidazol-2-yl]methyl}-N-methylacetamide hydrochloride] | 100 | –
17 | CN(Cc1nc2c(C(F)(F)F)cccc2[nH]1)C(=O)Cn1c(=O)oc2ccc(Cl)cc21.Cl [Example 16] | 620 | –
